≈ marks a conversion by molar mass, not a printed value. Where two headings read alike, the source gives them in different places.
Tests used:
Mt-AspRS [1] = target: T1, Mt-AspRS (Mycobacterium tuberculosis, UniProt P9WFW3); test: tRNA-independent ATP release assay (coupled enzymes, NADPH fluorescence); format: biochemical; design: made in house; details: Table S2, 0.5 μM enzyme, 2 mM ADPCP, mean of two replicates
M.tb H37Rv (intra) = test: MIC against intracellular M.tb H37Rv; format: cell-based; details: Mycobacterium tuberculosis, Table S2
M.tuberculosis H37Rv = test: MIC against M. tuberculosis H37Rv (extracellular); format: cell-based; details: Mycobacterium tuberculosis
HepG2 = HepG2 cytotoxicity; format: cell-based; details: Homo sapiens, Table S2
Mt-AspRS [2] = target: T1, Mt-AspRS; test: Mechanistic characterization, competition with ADPCP in tRNA-independent reaction; format: biochemical; design: made in house; details: ADPCP 0-4000 μM; inhibitor 50 and 100 μM
[3] = tested on: M.bovis BCG pMV261::Mt-AspRS; test: microbe, parasite or virus in culture; format: cell-based, Mycobacterium bovis BCG; details: for MIC: Mycobacterium tuberculosis variant bovis BCG, BCG
Mt-AspRS [4] = target: T1, Mt-AspRS; test: biochemical
M.bovis BCG empty pMV261 = test: microbe, parasite or virus in culture; format: cell-based; details: Mycobacterium tuberculosis variant bovis BCG
N[C@@H](CC(=O)O)C(=O)O = test: purified protein, by the assay type; details: pH 7.7; 37.0 °C
[5] = Table S2, extracellular, read-out: MIC M.tb H37Rv (extra)
[6] = read-out: MIC M. bovis BCG pMV261::AspRS
[7] = read-out: MIC M.bovis BCG pMV261::Mt-AspRS
[8] = Table S1, read-out: MIC M.tuberculosis H37Rv
[9] = read-out: MIC M. bovis empty pMV261 BCG
[10] = read-out: MIC M.bovis BCG empty pMV261

T1 sequence (P9WFW3 whole entry): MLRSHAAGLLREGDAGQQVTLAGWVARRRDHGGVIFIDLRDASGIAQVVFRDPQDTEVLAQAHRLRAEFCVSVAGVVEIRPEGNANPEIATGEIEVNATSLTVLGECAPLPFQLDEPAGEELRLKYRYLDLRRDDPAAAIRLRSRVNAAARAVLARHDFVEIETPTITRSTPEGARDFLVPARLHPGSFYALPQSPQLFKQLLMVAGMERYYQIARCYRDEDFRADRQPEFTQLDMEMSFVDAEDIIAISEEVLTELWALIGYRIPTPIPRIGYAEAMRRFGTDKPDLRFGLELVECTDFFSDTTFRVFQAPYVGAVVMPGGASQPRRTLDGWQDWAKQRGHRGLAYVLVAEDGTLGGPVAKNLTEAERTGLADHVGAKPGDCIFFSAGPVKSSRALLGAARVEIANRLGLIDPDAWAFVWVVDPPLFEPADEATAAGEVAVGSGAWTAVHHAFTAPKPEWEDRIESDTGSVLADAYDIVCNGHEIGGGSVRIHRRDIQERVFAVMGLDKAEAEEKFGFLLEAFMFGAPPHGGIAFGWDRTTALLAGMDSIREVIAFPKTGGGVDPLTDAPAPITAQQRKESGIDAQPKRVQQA

| Compound | IC50 (Mt-AspRS [1]) [µM] | MIC (M.tb H37Rv (intra)) [µM] | MIC (M.tuberculosis H37Rv; [5]) [µM] | IC50 (HepG2) [µM] | mode of inhibition with regard to ADPCP (Mt-AspRS [2]) | Ratio (MIC shift) [3] | MIC [3, 6] [µM] | MIC [3, 7] [µM] | IC50 (Mt-AspRS [4]) [µM] | MIC (M.tuberculosis H37Rv; [8]) [µM] | MIC (M.bovis BCG empty pMV261; [9]) [µM] | MIC (M.bovis BCG empty pMV261; [10]) [µM] | Km (N[C@@H](CC(=O)O)C(=O)O) [µM] |
| --- | --- | --- | --- | --- | --- | --- | --- | --- | --- | --- | --- | --- | --- |
| N#Cc1ccc(COc2ccc3c(c2)CCN(C(=O)/C=C/c2ccc(Nc4ccc(F)cn4)cc2)C3)cc1 [GSK85A] | 3.37 | > 50.1 | 2.5 (≈ 1.26 µg/mL) | 25.1 | – | – | – | – | – | – | – | – | – |
| Nc1ccc(/C=C/C(=O)N2CCC(COc3cccnc3)CC2)cn1 [GSK92A] | 21.3 | > 50.1 | > 80 | > 100 | – | – | – | – | – | – | – | – | – |
| O=C(O)c1ccc(Nc2nc(-c3cccs3)cs2)cc1O [GSK93A] | – | > 50.1 | 31.2 (≈ 9.95 µg/mL) | > 100 | Reversible and non-competitive | 4.3 | 1.7 (≈ 0.541 µg/mL) | 1.7 (≈ 0.541 µg/mL) | 35.6 | 31.2 (≈ 9.95 µg/mL) | 0.4 (≈ 0.127 µg/mL) | 0.4 (≈ 0.127 µg/mL) | – |
| O=C1OC2(CCC(CNc3ccc(-c4cc(F)cc(F)c4)nn3)CC2)CN1c1cccnn1 (stereo not shown) [GSK97C] | – | 3.16 (≈ 1.43 µg/mL) | 20 (≈ 9.05 µg/mL) | 40 | Reversible and non-competitive | 2.4 | 24.9 (≈ 11.3 µg/mL) | 24.9 (≈ 11.3 µg/mL) | 1.12 | 20 (≈ 9.05 µg/mL) | 10.5 (≈ 4.75 µg/mL) | 10.5 (≈ 4.75 µg/mL) | – |
| Mt-AspRS (Mycobacterium tuberculosis H37Rv) | – | – | – | – | – | – | – | – | – | – | – | – | 13.8 ± 9.6 |
